Measurements as given in US10251395B2, “Substituted furano-/thienocycloalkylamino-2-pyrimidine derivatives and use thereof for controlling undesired plant growth” (Bayer CropScience Aktiengesellschaft, priority 2015, dated 2019).

Assays:
Viola tricolor [1] = assay: Post-emergence herbicidal effect; type: in vivo; details: assessed visually after about 3 weeks vs untreated controls
In short: (§1)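 Ratings are visual percentages taken around 3 weeks after treatment, compared with untreated plants. Treatment consisted of an aqueous spray of WP or EC formulations, with 0.2% wetting agent, onto one-leaf-stage weeds raised from seed in sandy loam.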

Amaranthus retroflexus [2] = assay: Post-emergence herbicidal effect; type: in vivo; details: assessed visually after about 3 weeks vs untreated controls
In short: as §1

logP (HCOOH) = type: physicochemical; details: for chromatographic logP: HCOOH (formic acid)
Text: Table 2 (physicochemical characterization of selected synthesis examples)

Viola tricolor [3] = assay: Pre-emergence herbicidal effect; type: in vivo; details: scored visually after 3 weeks
In short: (§2)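 Herbicidal activity (%) is a visual rating made 3 weeks after treatment by comparison with untreated controls, where 0% equals control plants and 100% means the plants died. Application went onto the soil covering sown seeds before emergence.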

Veronica persica [4] = assay: Pre-emergence herbicidal effect; type: in vivo; details: scored visually after 3 weeks
In short: as §2

Matricaria inodora [5] = assay: Pre-emergence herbicidal effect; type: in vivo; details: scored visually after 3 weeks
In short: as §2

Amaranthus retroflexus [6] = assay: Pre-emergence herbicidal effect; type: in vivo; details: scored visually after 3 weeks
In short: as §2

Stellaria media [7] = assay: Pre-emergence herbicidal effect; type: in vivo; details: scored visually after 3 weeks
In short: as §2

Polygonum convolvulus = assay: Pre-emergence herbicidal effect; type: in vivo; details: scored visually after 3 weeks
In short: as §2

Veronica persica [8] = assay: Post-emergence herbicidal effect; type: in vivo; details: assessed visually after about 3 weeks vs untreated controls
In short: as §1

Stellaria media [9] = assay: Post-emergence herbicidal effect; type: in vivo; details: assessed visually after about 3 weeks vs untreated controls
In short: as §1

Setaria viridis [10] = assay: Pre-emergence herbicidal effect; type: in vivo; details: scored visually after 3 weeks
In short: as §2

Alopecurus myosuroides = assay: Pre-emergence herbicidal effect; type: in vivo; details: scored visually after 3 weeks
In short: as §2

Ipomoea purpurea = assay: Post-emergence herbicidal effect; type: in vivo; details: 320 g/ha, assessed visually after about 3 weeks vs untreated controls
In short: as §1

Echinochloa crus-galli = assay: Pre-emergence herbicidal effect; type: in vivo; details: Dosage 320 g/ha, scored visually after 3 weeks
In short: as §2

Setaria viridis [11] = assay: Post-emergence herbicidal effect; type: in vivo; details: 320 g/ha, assessed visually after about 3 weeks vs untreated controls
In short: as §1

Matricaria inodora [12] = assay: Post-emergence herbicidal effect; type: in vivo; details: assessed visually after about 3 weeks vs untreated controls
In short: as §1

Abutilon theophrasti = assay: Post-emergence herbicidal effect; type: in vivo; details: assessed visually after about 3 weeks vs untreated controls
In short: as §1

Lolium multiflorum = assay: Pre-emergence herbicidal effect; type: in vivo; details: Dosage 320 g/ha, scored visually after 3 weeks
In short: as §2

## Cc1cc2c(s1)CCCC2Nc1nc(N)c([S+](C)[O-])c(C(F)(F)F)n1 (racemic) [compound 35]
Viola tricolor [1]; 320 g/ha
  post-emergence efficacy VIOTR: 90%
Amaranthus retroflexus [2]; 320 g/ha
  post-emergence efficacy AMARE: 80%
logP (HCOOH)
  logP (HCOOH): oily; logP (HCOOH): 3.44; 1H NMR (CDCl3, 400 MHZ, δ in ppm): 1.85 (m, 3H, 3H of
Viola tricolor [3]; Dosage 320 g/ha
  VIOTR pre-emergence efficacy (herbicidal activity): 100%
Veronica persica [4]; Dosage 320 g/ha
  VERPE pre-emergence efficacy (herbicidal activity): 90%
Matricaria inodora [5]; Dosage 320 g/ha
  MATIN pre-emergence efficacy (herbicidal activity): 90%
Amaranthus retroflexus [6]; Dosage 320 g/ha
  AMARE pre-emergence efficacy (herbicidal activity): 90%
Stellaria media [7]; Dosage 320 g/ha
  STEME pre-emergence efficacy (herbicidal activity): 100%
Polygonum convolvulus; Dosage 320 g/ha
  POLCO pre-emergence efficacy (herbicidal activity): 90%

## Nc1nc(NC2CCCc3sccc32)ncc1S(=O)(=O)C1CC1 (racemic) [compound 36]
Viola tricolor [1]; 80 g/ha
  post-emergence efficacy VIOTR: 100%
Viola tricolor [1]; 320 g/ha
  post-emergence efficacy VIOTR: 100%
Veronica persica [8]; 320 g/ha
  post-emergence efficacy VERPE: 80%
Stellaria media [9]; 320 g/ha
  post-emergence efficacy STEME: 80%
logP (HCOOH)
  logP (HCOOH): solid; m.p.: 243.3° C.; logP (HCOOH): 2.12; 1H NMR (CDCl3, 400 MHZ, δ in ppm):
Viola tricolor [3]; Dosage 80 g/ha
  VIOTR pre-emergence efficacy (herbicidal activity): 100%
Viola tricolor [3]; Dosage 320 g/ha
  VIOTR pre-emergence efficacy (herbicidal activity): 100%
Veronica persica [4]; Dosage 80 g/ha
  VERPE pre-emergence efficacy (herbicidal activity): 90%
Veronica persica [4]; Dosage 320 g/ha
  VERPE pre-emergence efficacy (herbicidal activity): 100%
Matricaria inodora [5]; Dosage 80 g/ha
  MATIN pre-emergence efficacy (herbicidal activity): 100%
Matricaria inodora [5]; Dosage 320 g/ha
  MATIN pre-emergence efficacy (herbicidal activity): 100%
Amaranthus retroflexus [6]; Dosage 80 g/ha
  AMARE pre-emergence efficacy (herbicidal activity): 100%
Amaranthus retroflexus [6]; Dosage 320 g/ha
  AMARE pre-emergence efficacy (herbicidal activity): 100%
Stellaria media [7]; Dosage 80 g/ha
  STEME pre-emergence efficacy (herbicidal activity): 100%
Stellaria media [7]; Dosage 320 g/ha
  STEME pre-emergence efficacy (herbicidal activity): 100%

## Cc1cc2c(s1)CCC2Nc1ncc(S(=O)(=O)C(C)C)c(N)n1 (racemic) [compound 63]
Viola tricolor [1]; 80 g/ha
  post-emergence efficacy VIOTR: 90%
Viola tricolor [1]; 320 g/ha
  post-emergence efficacy VIOTR: 90%
Amaranthus retroflexus [2]; 80 g/ha
  post-emergence efficacy AMARE: 10%
Amaranthus retroflexus [2]; 320 g/ha
  post-emergence efficacy AMARE: 40%
logP (HCOOH)
  logP (HCOOH): solid; logP (HCOOH): 2.40; 1H NMR (CDCl3, 400 MHZ, δ in ppm): 1.35 (d, 6H, 6H
Setaria viridis [10]; Dosage 320 g/ha
  SETVI pre-emergence efficacy (herbicidal activity): 100%
Alopecurus myosuroides; Dosage 320 g/ha
  ALOMY pre-emergence efficacy (herbicidal activity): 100%
Viola tricolor [3]; Dosage 80 g/ha
  VIOTR pre-emergence efficacy (herbicidal activity): 100%
Viola tricolor [3]; Dosage 320 g/ha
  VIOTR pre-emergence efficacy (herbicidal activity): 100%
Matricaria inodora [5]; Dosage 80 g/ha
  MATIN pre-emergence efficacy (herbicidal activity): 100%
Matricaria inodora [5]; Dosage 320 g/ha
  MATIN pre-emergence efficacy (herbicidal activity): 100%
Stellaria media [7]; Dosage 80 g/ha
  STEME pre-emergence efficacy (herbicidal activity): 100%
Stellaria media [7]; Dosage 320 g/ha
  STEME pre-emergence efficacy (herbicidal activity): 100%
Polygonum convolvulus; Dosage 80 g/ha
  POLCO pre-emergence efficacy (herbicidal activity): 20%
Polygonum convolvulus; Dosage 320 g/ha
  POLCO pre-emergence efficacy (herbicidal activity): 100%

## Cc1cc2c(s1)CCCC2Nc1ncc(C(=O)C(F)(F)F)c(N)n1 (racemic) [compound 72]
Ipomoea purpurea
  post-emergence efficacy PHBPU: 80%
Viola tricolor [1]; 80 g/ha
  post-emergence efficacy VIOTR: 80%
Viola tricolor [1]; 320 g/ha
  post-emergence efficacy VIOTR: 100%
Veronica persica [8]; 80 g/ha
  post-emergence efficacy VERPE: 80%
Veronica persica [8]; 320 g/ha
  post-emergence efficacy VERPE: 80%
logP (HCOOH)
  logP (HCOOH): oily; logP (HCOOH): 3.90; 1H NMR (CDCl3, 400 MHZ, δ in ppm): 1.85 (m, 3H, 3H of
Setaria viridis [10]; Dosage 320 g/ha
  SETVI pre-emergence efficacy (herbicidal activity): 100%
Echinochloa crus-galli
  ECHCG pre-emergence efficacy (herbicidal activity): 80%
Alopecurus myosuroides; Dosage 80 g/ha
  ALOMY pre-emergence efficacy (herbicidal activity): 80%
Alopecurus myosuroides; Dosage 320 g/ha
  ALOMY pre-emergence efficacy (herbicidal activity): 90%
Viola tricolor [3]; Dosage 80 g/ha
  VIOTR pre-emergence efficacy (herbicidal activity): 100%
Viola tricolor [3]; Dosage 320 g/ha
  VIOTR pre-emergence efficacy (herbicidal activity): 100%
Veronica persica [4]; Dosage 80 g/ha
  VERPE pre-emergence efficacy (herbicidal activity): 100%
Veronica persica [4]; Dosage 320 g/ha
  VERPE pre-emergence efficacy (herbicidal activity): 100%
Matricaria inodora [5]; Dosage 80 g/ha
  MATIN pre-emergence efficacy (herbicidal activity): 100%
Matricaria inodora [5]; Dosage 320 g/ha
  MATIN pre-emergence efficacy (herbicidal activity): 100%
Amaranthus retroflexus [6]; Dosage 80 g/ha
  AMARE pre-emergence efficacy (herbicidal activity): 80%
Amaranthus retroflexus [6]; Dosage 320 g/ha
  AMARE pre-emergence efficacy (herbicidal activity): 100%
Stellaria media [7]; Dosage 320 g/ha
  STEME pre-emergence efficacy (herbicidal activity): 100%
Polygonum convolvulus; Dosage 320 g/ha
  POLCO pre-emergence efficacy (herbicidal activity): 100%

## CNC(=O)c1cnc(NC2CCCc3sc(C)cc32)nc1N (racemic) [compound 266]
Setaria viridis [11]
  post-emergence efficacy SETVI: 60%
Viola tricolor [1]; 80 g/ha
  post-emergence efficacy VIOTR: 80%
Viola tricolor [1]; 320 g/ha
  post-emergence efficacy VIOTR: 90%
Veronica persica [8]; 80 g/ha
  post-emergence efficacy VERPE: 90%
Veronica persica [8]; 320 g/ha
  post-emergence efficacy VERPE: 90%
Matricaria inodora [12]; 80 g/ha
  post-emergence efficacy MATIN: 60%
Matricaria inodora [12]; 320 g/ha
  post-emergence efficacy MATIN: 60%
Amaranthus retroflexus [2]; 80 g/ha
  post-emergence efficacy AMARE: 90%
Amaranthus retroflexus [2]; 320 g/ha
  post-emergence efficacy AMARE: 100%
Stellaria media [9]; 80 g/ha
  post-emergence efficacy STEME: 80%
Stellaria media [9]; 320 g/ha
  post-emergence efficacy STEME: 100%
Abutilon theophrasti; 80 g/ha
  post-emergence efficacy ABUTH: 80%
Abutilon theophrasti; 320 g/ha
  post-emergence efficacy ABUTH: 80%
logP (HCOOH)
  logP (HCOOH): logP (HCOOH): 1.17; 1H NMR (CDCl3, 400 MHZ, δ in ppm): 1.90 (m, 3H, 3H of
Setaria viridis [10]; Dosage 80 g/ha
  SETVI pre-emergence efficacy (herbicidal activity): 100%
Setaria viridis [10]; Dosage 320 g/ha
  SETVI pre-emergence efficacy (herbicidal activity): 100%
Echinochloa crus-galli
  ECHCG pre-emergence efficacy (herbicidal activity): 100%
Viola tricolor [3]; Dosage 320 g/ha
  VIOTR pre-emergence efficacy (herbicidal activity): 100%
Veronica persica [4]; Dosage 80 g/ha
  VERPE pre-emergence efficacy (herbicidal activity): 100%
Veronica persica [4]; Dosage 320 g/ha
  VERPE pre-emergence efficacy (herbicidal activity): 100%
Matricaria inodora [5]; Dosage 320 g/ha
  MATIN pre-emergence efficacy (herbicidal activity): 100%
Amaranthus retroflexus [6]; Dosage 80 g/ha
  AMARE pre-emergence efficacy (herbicidal activity): 100%
Amaranthus retroflexus [6]; Dosage 320 g/ha
  AMARE pre-emergence efficacy (herbicidal activity): 100%
Stellaria media [7]; Dosage 80 g/ha
  STEME pre-emergence efficacy (herbicidal activity): 100%
Stellaria media [7]; Dosage 320 g/ha
  STEME pre-emergence efficacy (herbicidal activity): 100%
Lolium multiflorum
  LOLMU pre-emergence efficacy (herbicidal activity): 60%

## Cc1cc2c(s1)CCCC2Nc1ncc(F)c(N)n1 (stereo not drawn) [compound 12, 5-Fluoro-N2-(2-methyl-4,5,6,7-tetrahydro-1-benzothiophen-4-yl)pyrimidine-2,4-diamine]
logP (HCOOH)
  chromatographic logP: 1.07
Setaria viridis [10]; Dosage 320 g/ha
  SETVI pre-emergence efficacy (herbicidal activity): 90%
Alopecurus myosuroides; Dosage 320 g/ha
  ALOMY pre-emergence efficacy (herbicidal activity): 90%
Viola tricolor [3]; Dosage 320 g/ha
  VIOTR pre-emergence efficacy (herbicidal activity): 100%
Veronica persica [4]; Dosage 320 g/ha
  VERPE pre-emergence efficacy (herbicidal activity): 100%
Matricaria inodora [5]; Dosage 320 g/ha
  MATIN pre-emergence efficacy (herbicidal activity): 90%
Amaranthus retroflexus [6]; Dosage 320 g/ha
  AMARE pre-emergence efficacy (herbicidal activity): 90%
Stellaria media [7]; Dosage 320 g/ha
  STEME pre-emergence efficacy (herbicidal activity): 100%
Polygonum convolvulus; Dosage 320 g/ha
  POLCO pre-emergence efficacy (herbicidal activity): 80%

## CS(=O)(=O)c1cnc(NC2CCc3ccsc32)nc1N (stereo not drawn) [compound 33, N2-(5,6-Dihydro-4H-cyclopenta[b]thiophen-6-yl)-5-methylsulfonylpyrimidine-2,4-diamine]
Viola tricolor [1]; 80 g/ha
  post-emergence efficacy VIOTR: 80%
Viola tricolor [1]; 320 g/ha
  post-emergence efficacy VIOTR: 90%
Matricaria inodora [12]; 320 g/ha
  post-emergence efficacy MATIN: 90%
logP (HCOOH)
  chromatographic logP: 1.57
Echinochloa crus-galli
  ECHCG pre-emergence efficacy (herbicidal activity): 100%
Viola tricolor [3]; Dosage 80 g/ha
  VIOTR pre-emergence efficacy (herbicidal activity): 100%
Viola tricolor [3]; Dosage 320 g/ha
  VIOTR pre-emergence efficacy (herbicidal activity): 100%
Veronica persica [4]; Dosage 80 g/ha
  VERPE pre-emergence efficacy (herbicidal activity): 80%
Veronica persica [4]; Dosage 320 g/ha
  VERPE pre-emergence efficacy (herbicidal activity): 100%
Matricaria inodora [5]; Dosage 80 g/ha
  MATIN pre-emergence efficacy (herbicidal activity): 100%
Matricaria inodora [5]; Dosage 320 g/ha
  MATIN pre-emergence efficacy (herbicidal activity): 100%
Amaranthus retroflexus [6]; Dosage 80 g/ha
  AMARE pre-emergence efficacy (herbicidal activity): 100%
Amaranthus retroflexus [6]; Dosage 320 g/ha
  AMARE pre-emergence efficacy (herbicidal activity): 100%
Stellaria media [7]; Dosage 80 g/ha
  STEME pre-emergence efficacy (herbicidal activity): 100%
Stellaria media [7]; Dosage 320 g/ha
  STEME pre-emergence efficacy (herbicidal activity): 100%
Polygonum convolvulus; Dosage 320 g/ha
  POLCO pre-emergence efficacy (herbicidal activity): 100%
Lolium multiflorum
  LOLMU pre-emergence efficacy (herbicidal activity): 100%
